Among the data in patent US20100216777A1, “AMINOPYRAZINE ANALOGS FOR TREATING GLAUCOMA AND OTHER RHO KINASE-MEDIATED DISEASES AND CONDITIONS” (ALCON, INC., priority 2004, published 2010) are IC50 values, retold here.

Structures can show the parent of a compound that is named as a salt.

In the assay the target is T1, Human Recombinant ROCK-II Enzyme (ROKα/ROCK-II, aa 11-552) (Homo sapiens, UniProt O75116).
T1 construct: (ROKα/ROCK-II, (aa 11-552), human active); purchased Upstate Biotechnology Co., Lake Placid, N.Y. 14-451
T1 sequence (O75116 11-552): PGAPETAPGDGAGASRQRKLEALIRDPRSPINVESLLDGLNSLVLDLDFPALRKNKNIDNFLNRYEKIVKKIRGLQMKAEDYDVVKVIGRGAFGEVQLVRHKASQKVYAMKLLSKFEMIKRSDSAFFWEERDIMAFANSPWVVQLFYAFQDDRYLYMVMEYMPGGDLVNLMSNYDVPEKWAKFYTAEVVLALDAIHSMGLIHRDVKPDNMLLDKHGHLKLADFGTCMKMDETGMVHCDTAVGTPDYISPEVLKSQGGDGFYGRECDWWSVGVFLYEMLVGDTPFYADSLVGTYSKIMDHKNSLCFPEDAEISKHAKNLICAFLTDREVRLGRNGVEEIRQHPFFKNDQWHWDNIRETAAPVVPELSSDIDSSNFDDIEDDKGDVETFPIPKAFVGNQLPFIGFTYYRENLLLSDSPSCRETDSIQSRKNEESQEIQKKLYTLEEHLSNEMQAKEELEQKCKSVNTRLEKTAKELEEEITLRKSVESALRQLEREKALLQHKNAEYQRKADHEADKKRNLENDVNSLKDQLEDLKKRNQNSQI
Description: ROCK-II inhibition, fluorescence polarization assay (IMAP ROCK II kit). Type of assay: biochemical. The settings on record: substrate 200 nM, ATP 10 μM, 60 min at 23° C., read-out: Enzyme Inhibition Constants (IC50) against Human Recombinant ROCK-II Enzyme. On the procedure: The ability of certain compounds of Formula (I) to inhibit rho kinase was evaluated by means of in vitro assays. Human recombinant Rho kinase (ROKα/ROCK-II, (aa 11-552), human active, catalog #14-451, Upstate Biotechnology Co., Lake Placid, N.Y.), MgCl2/ATP cocktail, and enzyme substrate (Upstate) are used.
The fluorescence polarization assays are performed using a Biomek 2000 Robotic Workstation (Beckman Instruments, Palo Alto, Calif.) in a 96-well plate format. The assays are performed utilizing the IMAP ROCK II kit (Molecular Devices, Sunnyvale, Calif.) as follows. Substrate and ATP concentrations used are 200 nM and 10 μM, respectively, while the enzyme concentration is 3.96×10^−3 units per well. The substrate, enzyme, and ATP dilutions are made with the reaction buffer provided by the vendor. Test compounds are diluted in 10:10 DMSO-ethanol (vol/vol). For the actual assays, the various components are added into black, clear bottom, 96-well plates (Costar, Corning, N.Y.) in a final volume of 20 μl per well. After the enzyme reaction (60 min at 23° C.), 60 μl of the binding solution (IMAP kit, provided by vendor) is added per well and incubated for an additional 30 minutes in the dark at 23° C. Fluorescence polarization of the reaction mixtures is then measured on the Analyst™ HT instrument (Molecular Devices, Sunnyvale, Calif.).
The data generated are then analyzed using a non-linear, iterative, sigmoidal-fit computer program purchased from IDBS (Emeryville, Calif.) and as previously described (Sharif et al., J. Pharmacol. Exp. Ther. 286:1094-1102, 1998; Sharif et al., J. Pharmacol. Expt. Ther. 293:321-328, 2000; Sharif et al., J. Ocular Pharmacol. Ther. 18:141-162, 2002a; Sharif et al., J. Pharmac. Pharmacol. 54:539-547, 2002b) to generate the inhibition constants for the test compounds.
(Fluorescence polarisation rises when a labelled molecule tumbles more slowly, as on binding a larger partner.)

As usually defined, the IC50 is the concentration needed to halve the response being measured. On to `CN1CCCN(c2nc(-c3ccncc3)cnc2N)CC1` [Example 1, 3-(4-Methyl-1,4-diazepan-1-yl)-5-(pyridin-4-yl)pyrazin-2-amine], for which the IC50 was 3 nM.
With `Cc1cnccc1-c1cnc(N)c(N2CCCN(C)CC2)n1` [Example 2, 3-(4-Methyl-1,4-diazepan-1-yl)-5-(3-methylpyridin-4-yl)pyrazin-2-amine hydrochloride], the IC50 was determined as 58 nM.
Take `CN1CCCN(c2nc(-c3cc[nH]n3)cnc2N)CC1` [Example 3, 3-(4-Methyl-1,4-diazepan-1-yl)-5-(1H-pyrazol-3-yl)pyrazin-2-amine]: the IC50 worked out at 2.8 nM.
`CN1CCCN(c2nc(-c3ccnc4[nH]ccc34)cnc2N)CC1` [Example 4, 3-(4-Methyl-1,4-diazepan-1-yl)-5-(1H-pyrrolo[2,3-b]pyridin-4-yl)pyrazin-2-amine]: the 50% inhibitory concentration (IC50) was determined as 0.53 nM.
The result for `CN1CCCN(c2nc(-c3cccc4[nH]ncc34)cnc2N)CC1` [Example 5, 5-(1H-indazol-4-yl)-3-(4-methyl-1,4-diazepan-1-yl)pyrazin-2-amine dihydrochloride] reads 25 nM; that for `CN1CCCN(c2nc(-c3ccc4[nH]ncc4c3)cnc2N)CC1` [Example 7, 5-(1H-Indazol-5-yl)-3-(4-methyl-1,4-diazepan-1-yl)pyrazin-2-amine dihydrochloride], 0.95 nM.
Consider `CN1CCCN(c2nc(-c3ccnc(N)c3)cnc2N)CC1` [Example 8, 5-(2-Aminopyridin-4-yl)-3-(4-methyl-1,4-diazepan-1-yl)pyrazin-2-amine trihydrochloride], for which the IC50 was 53 nM.
Next, `Nc1ncc(-c2ccncc2)nc1N(CCO)CCO` [Example 9, 2,2′-(3-Amino-6-(pyridin-4-yl)pyrazin-2-ylazanediyl)diethanol]: 22 nM; `Nc1ncc(-c2ccncc2)nc1N1CCCCC1` [Example 10, 3-(Piperidin-1-yl)-5-(pyridin-4-yl)pyrazin-2-amine]: 59 nM.
In the case of `Nc1ncc(-c2ccncc2)nc1N1CCC(CO)CC1` [Example 11, (1-(3-Amino-6-(pyridin-4-yl)pyrazin-2-yl)piperidin-4-yl)methanol], the IC50 is 17 nM.
In the case of `Nc1ncc(-c2ccncc2)nc1N1CCC(O)CC1` [Example 12, 1-(3-Amino-6-(pyridin-4-yl)pyrazin-2-yl)piperidin-4-ol], the IC50 is 6.9 nM.
Turning to `CN(C)C1CCN(c2nc(-c3ccncc3)cnc2N)CC1` [Example 13, 3-(4-(Dimethylamino)piperidin-1-yl)-5-(pyridin-4-yl)pyrazin-2-amine], the 50% inhibitory concentration (IC50) turned out to be 6.4 nM.
Regarding `CN1CCC(Nc2nc(-c3ccncc3)cnc2N)CC1` [Example 14, N,N-(1-Methylpiperidin-4-yl)-6-(pyridin-4-yl)pyrazine-2,3-diamine], the IC50 amounted to 3.5 nM.
As for `CN1CCCC(Nc2nc(-c3ccncc3)cnc2N)C1` (stereo not shown) [Example 15, N,N-(1-Methylpiperidin-3-yl)-6-(pyridin-4-yl)pyrazine-2,3-diamine], the IC50 stood at 5.5 nM.
Take `Nc1ncc(-c2ccncc2)nc1NC1CCNCC1` [Example 16, N,N-2-(Piperidin-4-yl)-6-(pyridin-4-yl)pyrazine-2,3-diamine]: the IC50 came out at 0.82 nM.
Next, `Nc1ncc(-c2ccncc2)nc1NC1CCCNC1` (stereo not shown) [Example 17, N,N-(Piperidin-3-yl)-6-(pyridin-4-yl)pyrazine-2,3-diamine]: 0.21 nM; `CN1CCC(N(C)c2nc(-c3ccncc3)cnc2N)CC1` [Example 18, N,N-Methyl-N,N-(1-methylpiperidin-4-yl)-6-(pyridin-4-yl)pyrazine-2,3-diamine]: 9.6 nM; `Nc1ncc(-c2ccncc2)nc1NC1CCNC1` (stereo not shown) [Example 19, 6-(Pyridin-4-yl)-N^2-(pyrrolidin-3-yl)pyrazine-2,3-diamine]: 0.064 nM.
Turning to `CN1CCC(Oc2nc(-c3ccncc3)cnc2N)CC1` [Example 20, 3-(1-Methylpiperidin-4-yloxy)-5-(pyridin-4-yl)pyrazin-2-amine], the IC50 was found to be 5.6 nM.
